From US20260125378A2, “Heterocyclic Compounds” (BeOne Medicines I GmbH, priority 2023, published 2026)

Tests used:
[1] = target: T1, Full length DGKζ (in-house protein M1-V929) (Homo sapiens, UniProt Q13574); test: Biochemical DGK IC50 assay (ADP-Glo, lipid micelle substrate), DGKζ; details: 1 hour preincubation, 1 hour reaction, room temperature
T1 construct: His (N); TEV site (N); made in house; host or cells: Sf9 insect cells (Bac-to-Bac baculovirus)
How it was run: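 Full-length human DGKζ (M1-V929, His-TEV tagged, Sf9 baculovirus-expressed) with DAG/PS lipid micelle substrate in octyl glucoside, at room temperature in 50 mM HEPES, 10 mM MgCl2, 0.01 mM CaCl2 buffer.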

[2] = target: T2, Full length DGKα (D21-10BG, SignalChem) (Homo sapiens, UniProt P23743); test: Biochemical DGK IC50 assay (ADP-Glo, lipid micelle substrate), DGKα; details: 1 hour preincubation, 1 hour reaction, room temperature
T2 construct: Full length DGKα (D21-10BG, SignalChem); purchased SignalChem D21-10BG
T2 sequence (P23743 whole entry): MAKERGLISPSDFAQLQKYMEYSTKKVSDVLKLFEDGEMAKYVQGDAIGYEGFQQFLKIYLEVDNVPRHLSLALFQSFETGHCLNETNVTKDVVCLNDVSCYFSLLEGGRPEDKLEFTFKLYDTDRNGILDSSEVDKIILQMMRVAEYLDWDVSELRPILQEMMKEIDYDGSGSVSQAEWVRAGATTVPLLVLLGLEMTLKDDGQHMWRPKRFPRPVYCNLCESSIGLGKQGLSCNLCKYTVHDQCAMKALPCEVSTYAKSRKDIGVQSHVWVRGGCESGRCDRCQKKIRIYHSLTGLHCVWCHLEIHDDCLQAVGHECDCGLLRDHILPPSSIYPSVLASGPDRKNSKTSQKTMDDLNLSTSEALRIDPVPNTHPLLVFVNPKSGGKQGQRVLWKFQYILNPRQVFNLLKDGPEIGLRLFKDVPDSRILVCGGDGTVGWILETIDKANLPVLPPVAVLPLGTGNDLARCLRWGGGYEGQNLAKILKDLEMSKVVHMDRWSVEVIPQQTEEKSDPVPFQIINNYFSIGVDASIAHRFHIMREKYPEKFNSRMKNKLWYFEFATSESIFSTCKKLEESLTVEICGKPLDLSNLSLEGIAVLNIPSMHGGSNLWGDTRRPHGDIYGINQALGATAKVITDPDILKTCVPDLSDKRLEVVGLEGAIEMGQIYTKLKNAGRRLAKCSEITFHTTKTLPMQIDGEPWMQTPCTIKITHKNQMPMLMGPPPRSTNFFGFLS
How it was run: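 Full-length human DGKα with DAG/PS lipid micelle substrate (in octyl glucoside buffer), reacted 1 h at room temperature in 50 mM HEPES, 10 mM MgCl2, 0.01 mM CaCl2, 0.1 mM Na3VO4, 0.01% BSA, 0.005% Tween-20. ADP formed read by ADP-Glo luminescence; IC50 from inhibition across increasing compound concentrations.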

T1 sequence (Q13574 1-929 isoform Q13574-4): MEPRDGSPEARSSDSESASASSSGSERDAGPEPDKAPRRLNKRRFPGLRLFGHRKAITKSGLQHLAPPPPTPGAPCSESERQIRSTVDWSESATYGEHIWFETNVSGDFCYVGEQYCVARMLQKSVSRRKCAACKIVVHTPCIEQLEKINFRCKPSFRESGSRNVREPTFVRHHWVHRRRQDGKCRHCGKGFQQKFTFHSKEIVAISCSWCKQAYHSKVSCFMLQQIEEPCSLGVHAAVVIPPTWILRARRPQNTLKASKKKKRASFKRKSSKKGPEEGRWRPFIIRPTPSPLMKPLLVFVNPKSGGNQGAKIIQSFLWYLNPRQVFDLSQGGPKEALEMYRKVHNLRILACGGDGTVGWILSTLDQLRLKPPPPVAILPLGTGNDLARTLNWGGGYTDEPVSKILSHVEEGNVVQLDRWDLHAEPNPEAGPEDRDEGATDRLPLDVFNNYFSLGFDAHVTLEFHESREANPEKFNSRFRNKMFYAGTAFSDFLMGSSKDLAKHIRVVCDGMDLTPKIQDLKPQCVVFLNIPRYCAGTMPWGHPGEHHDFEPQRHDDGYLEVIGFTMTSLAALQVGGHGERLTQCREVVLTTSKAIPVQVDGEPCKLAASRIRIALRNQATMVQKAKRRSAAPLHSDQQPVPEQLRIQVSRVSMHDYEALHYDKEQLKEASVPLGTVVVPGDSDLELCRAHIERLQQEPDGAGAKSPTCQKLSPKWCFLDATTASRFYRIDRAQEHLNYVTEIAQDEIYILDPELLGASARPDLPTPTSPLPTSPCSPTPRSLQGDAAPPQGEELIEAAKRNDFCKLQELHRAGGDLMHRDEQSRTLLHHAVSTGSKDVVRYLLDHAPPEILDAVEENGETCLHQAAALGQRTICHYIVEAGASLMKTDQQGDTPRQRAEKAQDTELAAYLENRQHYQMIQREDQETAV

Row | SMILES | IC50 [1] | IC50 [2]
1 | CC[C@H]1CN(C(C)c2ccc3c(c2)OC(C)(C)CO3)[C@H](CC)CN1c1nc(=O)n(C)c2c1nc(CC#N)n2CC (stereo partly drawn) [Compound A67, 2-(6-((2S,5R)-4-(1-(3,3-dimethyl-2,3-dihydrobenzo[b][1,4]dioxin-6-yl)ethyl)-2,5-diethylpiperazin-1-yl)-9-ethyl-3-methyl-2-oxo-3,9-dihydro-2H-purin-8-yl)acetonitrile] | 10 nM | 118000 nM
2 | CCn1c(CC#N)nc2c(N3C[C@@H](C)N(C(C)c4ccc5c(c4)C(=O)N(C(C)C)C5=O)C[C@@H]3C)nc(=O)n(C)c21 (stereo partly drawn) [Compound A178, 2-(9-ethyl-6-((2S,5R)-4-(1-(2-isopropyl-1,3-dioxoisoindolin-5-yl)ethyl)-2,5-dimethylpiperazin-1-yl)-3-methyl-2-oxo-3,9-dihydro-2H-purin-8-yl)acetonitrile] | 15 nM | 92400 nM
3 | CCn1c(CC#N)nc2c(N3C[C@@H](C)N(C(C)c4ccc5nc(C)sc5c4)C[C@@H]3C)nc(=O)n(C)c21 (single isomer, unassigned) [Compound A56b] | 23 nM | 50900 nM
4 | CCn1c(CC#N)nc2c(N3C[C@@H](C)N(C(C)c4ccc5c(c4F)OC(C)(C)O5)C[C@@H]3C)c(F)c(=O)n(C)c21 (single isomer, unassigned) [Compound A190b] | 41 nM | 38200 nM
5 | CCn1c(CC#N)nc2c(N3C[C@@H](C)N(C(=O)c4ccc5c(n4)C(C)(C)CO5)C[C@@H]3C)nc(=O)n(C)c21 [Compound A182, 2-(6-((2S,5R)-4-(3,3-dimethyl-2,3-dihydrofuro[3,2-b]pyridine-5-carbonyl)-2,5-dimethylpiperazin-1-yl)-9-ethyl-3-methyl-2-oxo-3,9-dihydro-2H-purin-8-yl)acetonitrile] | 499 nM | > 150000 nM
6 | CCn1c(CC#N)nc2c(N3C[C@@H](C)N(C(C)c4ccc5c(c4)OC(F)(F)O5)C[C@@H]3C)nc(=O)n(C)c21 (single isomer, unassigned) [Compound A99a] | 71 nM | 34500 nM
7 | COc1cc(F)ccc1C(C)N1C[C@H](C)N(c2cc(=O)n(C)c3c2nc(CC#N)n3C)C[C@H]1C (single isomer, unassigned) [Compound A4a] | 566 nM | > 10000 nM
8 | CC(c1ccc2c(c1)OCCO2)N1C[C@H](C)N(c2c(F)c(=O)n(C)c3c2nc(CC#N)n3C)C[C@H]1C (single isomer, unassigned) [Compound A18a] | 19 nM | 23600 nM
9 | CC(c1ccc(F)cc1OC(F)F)N1C[C@H](C)N(c2nc(=O)n(C)c3c2nc(CC#N)n3C)C[C@H]1C (stereo partly drawn) [Compound A25, 2-(6-((2S,5R)-4-(1-(2-(difluoromethoxy)-4-fluorophenyl)ethyl)-2,5-dimethylpiperazin-1-yl)-3,9-dimethyl-2-oxo-3,9-dihydro-2H-purin-8-yl)acetonitrile] | 15 nM | 36900 nM
10 | CCn1c(CC#N)nc2c(N3C[C@@H](C)N(C(C)c4ccc5c(c4)OC(C)(CC)O5)C[C@@H]3C)nc(=O)n(C)c21 (stereo partly drawn) [Compound A168, 2-(9-ethyl-6-((2S,5R)-4-(1-(2-ethyl-2-methylbenzo[d][1,3]dioxol-5-yl)ethyl)-2,5-dimethylpiperazin-1-yl)-3-methyl-2-oxo-3,9-dihydro-2H-purin-8-yl)acetonitrile] | 26 nM | 64300 nM
11 | CCn1c(CC#N)nc2c(N3C[C@@H](C)N(C(C)c4ccc5c(c4)C(C)(C)CO5)C[C@@H]3C)nc(=O)n(C)c21 (stereo partly drawn) [Compound A183, 2-(6-((2S,5R)-4-(1-(3,3-dimethyl-2,3-dihydrobenzofuran-5-yl)ethyl)-2,5-dimethylpiperazin-1-yl)-9-ethyl-3-methyl-2-oxo-3,9-dihydro-2H-purin-8-yl)acetonitrile] | 4 nM | > 150000 nM
12 | CCc1nc2cc(C(C)N3C[C@H](C)N(c4nc(=O)n(C)c5c4nc(CC#N)n5CC)C[C@H]3C)ccc2s1 (single isomer, unassigned) [Compound A95b] | 555 nM | 108000 nM
13 | CC[C@@H]1CN(c2nc(=O)n(C)c3c2nc(CC#N)n3C)[C@@H](C)CN1C(C)c1ccc2c(n1)OC(C)(C)CO2 (single isomer, unassigned) [Compound A159a] | 25 nM | 27400 nM
14 | CCn1c(CC#N)nc2c(N3C[C@@H](C)N(C(C)c4ccc5occ(C)c(=O)c5c4)C[C@@H]3C)nc(=O)n(C)c21 (stereo partly drawn) [Compound A91, 2-(6-((2S,5R)-2,5-dimethyl-4-(1-(3-methyl-4-oxo-4H-chromen-6-yl)ethyl)piperazin-1-yl)-9-ethyl-3-methyl-2-oxo-3,9-dihydro-2H-purin-8-yl)acetonitrile] | 20 nM | > 150000 nM
15 | CCn1c(CC#N)nc2c(N3C[C@@H](C)N(C(C)c4cc(C)c5c(c4)OC(C)(C)O5)C[C@@H]3C)nc(=O)n(C)c21 (stereo partly drawn) [Compound A177, 2-(6-((2S,5R)-2,5-dimethyl-4-(1-(2,2,7-trimethylbenzo[d][1,3]dioxol-5-yl)ethyl)piperazin-1-yl)-9-ethyl-3-methyl-2-oxo-3,9-dihydro-2H-purin-8-yl)acetonitrile] | 168 nM | 72600 nM
16 | CCn1c(CC#N)nc2c(N3C[C@@H](C)N(C(C)c4ccc5c(c4)OC(C)(C)CC5)C[C@@H]3C)nc(=O)n(C)c21 (single isomer, unassigned) [Compound A94b] | 532 nM | > 150000 nM
17 | CC(c1cc2c(cc1F)OCC(C)(C)O2)N1C[C@H](C)N(c2nc(=O)n(C)c3c2nc(CC#N)n3C)C[C@H]1C (single isomer, unassigned) [Compound A69a] | 2 nM | 1190 nM
18 | CCn1c(CC#N)nc2c(N3C[C@@H](C)N(C(C)c4ccc5c(n4)OC(C)(C)CO5)C[C@@H]3C)nc(=O)n(C)c21 (single isomer, unassigned) [Compound A74a] | 46 nM | > 150000 nM
19 | CCn1c(CC#N)nc2c(N3C[C@@H](C)N(C(C)c4cccc(C(F)(F)F)n4)C[C@@H]3C)nc(=O)n(C)c21 (single isomer, unassigned) [Compound A118b] | 103 nM | 65600 nM
20 | CC[C@@H]1CN(c2nc(=O)n(C)c3c2nc(CC#N)n3CC)[C@@H](C)CN1C(C)c1ccc2c(n1)OC(C)(C)CO2 (mixture of isomers) [Compound A158, 2-(6-((2S,5R)-4-(1-(3,3-dimethyl-2,3-dihydro-[1,4]dioxino[2,3-b]pyridin-6-yl)ethyl)-5-ethyl-2-methylpiperazin-1-yl)-9-ethyl-3-methyl-2-oxo-3,9-dihydro-2H-purin-8-yl)acetonitrile] | 33 nM | 122000 nM
21 | Cc1ccc(C(C)N2C[C@H](C)N(c3nc(=O)n(C)c4c3nc(CC#N)n4C)C[C@H]2C)c(C(F)(F)F)c1 (single isomer, unassigned) [Compound A32b] | 138 nM | 5590 nM
22 | CCn1c(CC#N)nc2c(N3C[C@@H](C)N(C(C)c4cccc(C(C)(C)C#N)c4)C[C@@H]3C)nc(=O)n(C)c21 (stereo partly drawn) [Compound A134, 2-(3-(1-((2R,5S)-4-(8-(cyanomethyl)-9-ethyl-3-methyl-2-oxo-3,9-dihydro-2H-purin-6-yl)-2,5-dimethylpiperazin-1-yl)ethyl)phenyl)-2-methylpropanenitrile] | 22 nM | 113000 nM
23 | CC(c1cc(F)c2c(n1)OC(C)(C)CO2)N1C[C@H](C)N(c2nc(=O)n(C)c3c2nc(CC#N)n3C)C[C@H]1C (stereo partly drawn) [Compound A164, 2-(6-((2S,5R)-4-(1-(8-fluoro-3,3-dimethyl-2,3-dihydro-[1,4]dioxino[2,3-b]pyridin-6-yl)ethyl)-2,5-dimethylpiperazin-1-yl)-3,9-dimethyl-2-oxo-3,9-dihydro-2H-purin-8-yl)acetonitrile] | 31 nM | 125000 nM
24 | CC#CCc1nc2c(N3C[C@@H](CC)N(C(C)c4ccc(C(F)(F)F)cc4)C[C@@H]3CC)nc(=O)n(C)c2n1C (stereo partly drawn) [Compound A152, 8-(but-2-yn-1-yl)-6-((2S,5R)-2,5-diethyl-4-(1-(4-(trifluoromethyl)phenyl)ethyl)piperazin-1-yl)-3,9-dimethyl-3,9-dihydro-2H-purin-2-one] | 707 nM | 2690 nM
25 | COC[C@H]1CN(C(C)c2ccc3c(c2)OCCO3)[C@H](C)CN1c1nc(=O)n(C)c2c1nc(CC#N)n2C (single isomer, unassigned) [Compound A11a] | 764 nM | 57800 nM
26 | Cc1cnc2ccc(C(C)N3C[C@H](C)N(c4nc(=O)n(C)c5c4nc(CC#N)n5C)C[C@H]3C)cc2n1 (single isomer, unassigned) [Compound A49a] | 6 nM | 77900 nM
27 | CCn1c(CC#N)nc2c(N3C[C@@H](C)N(C(C)c4cc(F)c5c(c4)OC(C)(C)O5)C[C@@H]3C)nc(=O)n(C)c21 (mixture of isomers) [Compound A173, 2-(9-ethyl-6-((2S,5R)-4-(1-(7-fluoro-2,2-dimethylbenzo[d][1,3]dioxol-5-yl)ethyl)-2,5-dimethylpiperazin-1-yl)-3-methyl-2-oxo-3,9-dihydro-2H-purin-8-yl)acetonitrile] | 44 nM | 143000 nM
28 | CCn1c(CC#N)nc2c(N3C[C@@H](C)N(C(C)c4ccc(N5CCOCC5)cc4)C[C@@H]3C)nc(=O)n(C)c21 (stereo partly drawn) [Compound A143, 2-(6-((2S,5R)-2,5-dimethyl-4-(1-(4-morpholinophenyl)ethyl)piperazin-1-yl)-9-ethyl-3-methyl-2-oxo-3,9-dihydro-2H-purin-8-yl)acetonitrile] | > 10000 nM | > 150000 nM
29 | CCn1c(CC#N)nc2c(N3C[C@@H](C)N(C(C)c4ccc5c(c4)OC4(CCC4)O5)C[C@@H]3C)nc(=O)n(C)c21 (single isomer, unassigned) [Compound A169b] | 455 nM | 78200 nM
